Assay results: patent US9150632B2 (Indiana University Research and Technology Corporation, priority 2009, dated 2015)
Non-standard residues stand in square brackets, D forms with d. Residues, ends and D or L forms follow the SMILES beside them. No end group written: not given here. *: point of attachment. Palmitoyl = CCCCCCCCCCCCCCCC(=O)*; Aib = CC(C)(N)C(=O)O

What was measured:
[1] = Body weight, body composition and food intake in diet-induced obesity (DIO) mice; type: in vivo
Procedure: […] 6 mice per group with initial average body weight of 44 g were tested. Body weight, body composition, food intake, and blood glucose levels were determined periodically.
Body weight was measured before injection and at 1, 3, 5, and 7 days post-injection.
Changes in body weight of and food intake by the mice were measured 0, 1, 3, 5, 7, 8, 10, 12, and 14 days after injection. Blood glucose levels of the mice were monitored throughout the 14 days. Glucose tolerance tests were performed by injecting a 25% glucose in saline solution 1 hour or 24 hours after administration of the acylated or pegylated peptide and measuring blood glucose levels at −60, 0, 15, 30, 60, or 120 min after the glucose injection.
The acylated glucagon analogs were as follows:
C57BI/6 mice were obtained from Jackson Laboratories and fed a diabetogenic diet from Research Diets, a high sucrose diet with 58% kcal from fat. Mice were single or group-housed on a 12:12-h light-dark cycle at 22° C. with free access to food and water. All studies were approved by and performed according to the guidelines of the Institutional Animal Care and Use Committee of the University of Cincinnati.
Whole body composition (fat and lean mass) was measured using NMR technology (EchoMRI, Houston, Tex.).
The peptides were administered daily for two weeks to 11 groups of 8 C57Bl/6 mice by subcutaneous injection at a dose of 10 or 30 nmol/kg. […]

glucagon receptor = target: T1, glucagon receptor (Homo sapiens, UniProt P47871); test: Functional assay-cAMP synthesis, luciferase reporter in HEK293 cells, glucagon receptor; type: cell-based; settings: for Glucagon Receptor % relative activity: activity relative to the native hormone at the indicated receptor; for EC50: cAMP induction, in vitro, as in Example 14
T1 construct: expressed in transfected cells; host or cells: HEK293

GIP receptor = target: T2, GIP receptor (Homo sapiens, UniProt P48546); test: Functional assay-cAMP synthesis, luciferase reporter in HEK293 cells, GIP receptor; type: cell-based; settings: for GIP Receptor % relative activity: activity relative to the native hormone at the indicated receptor; for EC50: cAMP induction, in vitro, as in Example 14
T2 construct: expressed in transfected cells; host or cells: HEK293
T2 sequence (P48546 22-466): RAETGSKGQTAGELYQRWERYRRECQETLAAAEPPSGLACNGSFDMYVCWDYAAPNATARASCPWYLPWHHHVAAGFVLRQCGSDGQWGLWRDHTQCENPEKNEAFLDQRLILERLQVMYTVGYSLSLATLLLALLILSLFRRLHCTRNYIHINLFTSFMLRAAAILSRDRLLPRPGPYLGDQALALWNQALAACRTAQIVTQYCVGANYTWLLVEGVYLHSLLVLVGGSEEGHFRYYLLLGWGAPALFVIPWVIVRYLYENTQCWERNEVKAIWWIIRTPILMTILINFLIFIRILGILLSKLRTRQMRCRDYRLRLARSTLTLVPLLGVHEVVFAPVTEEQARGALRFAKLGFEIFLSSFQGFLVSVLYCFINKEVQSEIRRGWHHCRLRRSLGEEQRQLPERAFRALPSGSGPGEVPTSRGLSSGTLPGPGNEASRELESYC

GLP-1 receptor [2] = target: T3, GLP-1 receptor (Homo sapiens, UniProt P43220); settings: for GLP-1 Receptor % relative activity: activity relative to the native hormone at the indicated receptor
Procedure: (§1) Peptide absorbance readings were obtained from UV Absorbance measurements at 280 nm on a Genesys 6 Spectrophotometer (Thermo Electron Corporation). Beer's Law was used to calculate solution concentrations based on the number of tryptophan and tyrosine residues in each analog. At the end of the incubation, 100 μL LucLite luminescence substrate reagent was added to each well, the plate sealed and shaken, and placed into a Wallac Trilux luminescence counter for cAMP detection.
(§2) HEK293 cells were co-transfected with the GcgR or GLP-1R cDNAs and a luciferase reporter gene-linked to a cAMP response element (CRE). […] The plate was incubated for 10 min in the dark and light output was quantified on a MicroBeta1450 liquid scintillation counter (Perkin-Elmer, Wellesley, Mass.).

GLP-1 receptor [3] = target: T3, GLP-1 receptor; test: cell-based
Procedure: as §1, §2

[4] = pH 7
[5] = Table 35, relative to the native hormone

T3 sequence (P43220 24-463, species assumed): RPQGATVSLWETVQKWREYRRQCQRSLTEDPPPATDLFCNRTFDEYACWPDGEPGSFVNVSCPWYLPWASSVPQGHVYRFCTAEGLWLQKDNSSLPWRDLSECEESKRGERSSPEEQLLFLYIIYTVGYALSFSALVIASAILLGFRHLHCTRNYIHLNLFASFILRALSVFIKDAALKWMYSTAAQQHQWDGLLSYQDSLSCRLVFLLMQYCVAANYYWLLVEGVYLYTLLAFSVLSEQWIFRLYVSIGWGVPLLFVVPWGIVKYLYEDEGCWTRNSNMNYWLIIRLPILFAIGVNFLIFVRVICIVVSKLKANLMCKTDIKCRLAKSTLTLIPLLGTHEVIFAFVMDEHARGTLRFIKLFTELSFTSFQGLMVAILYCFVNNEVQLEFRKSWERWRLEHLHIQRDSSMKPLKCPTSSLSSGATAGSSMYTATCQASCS
T1 sequence (P47871 26-477): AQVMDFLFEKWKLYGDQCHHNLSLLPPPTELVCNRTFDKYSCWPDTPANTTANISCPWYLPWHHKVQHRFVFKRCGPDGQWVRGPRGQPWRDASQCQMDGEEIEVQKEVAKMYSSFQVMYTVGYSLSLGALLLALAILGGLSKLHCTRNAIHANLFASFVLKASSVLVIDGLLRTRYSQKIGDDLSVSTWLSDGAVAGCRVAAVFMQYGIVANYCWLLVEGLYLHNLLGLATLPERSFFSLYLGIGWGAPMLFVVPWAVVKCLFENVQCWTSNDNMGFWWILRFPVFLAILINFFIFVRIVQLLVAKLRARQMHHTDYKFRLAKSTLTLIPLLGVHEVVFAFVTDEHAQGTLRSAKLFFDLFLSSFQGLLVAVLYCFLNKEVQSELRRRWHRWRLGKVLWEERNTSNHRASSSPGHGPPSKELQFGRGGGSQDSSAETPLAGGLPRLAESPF

Molecule	Glucagon Receptor % relative activity (glucagon receptor) [%]	EC50 (glucagon receptor) [nM]	GIP Receptor % relative activity (GIP receptor) [%]	EC50 (GIP receptor) [nM]	GLP-1 Receptor % relative activity (GLP-1 receptor [2]) [%]	EC50 (GLP-1 receptor [3]) [nM]	other results
Peptide U: SEQ ID NO: 1 with Glu16, Gln17, Ala18, Lys20, Glu21, Ile23, Cys24 with 20-kd pegylation, no AIB2, no lactam (HSQGTFTSDYSKYLDEQAAKEFIC(PEG 20 kDa)WLMNT)	–	–	–	–	–	–	body weight lowering ([1]; each day for one week at 50 nmol/kg s.c.): -13.71 ± 0.92 g
CCCCCCCCCCCCCCCC(=O)NCCCC[C@H](NC(=O)[C@H](CO)NC(=O)[C@@H]1CCCN1C(=O)[C@@H]1CCCN1C(=O)[C@@H]1CCCN1C(=O)[C@H](C)NC(=O)CNC(=O)[C@H](CO)NC(=O)[C@H](CO)NC(=O)[C@@H]1CCCN1C(=O)CNC(=O)CNC(=O)[C@H](CC(N)=O)NC(=O)[C@H](CCSC)NC(=O)[C@H](CC(C)C)NC(=O)[C@H](Cc1c[nH]c2ccccc12)NC(=O)[C@H](CC(N)=O)NC(=O)[C@@H](NC(=O)[C@H](Cc1ccccc1)NC(=O)[C@H](CCC(=O)O)NC(=O)[C@H](CCCCN)NC(=O)[C@H](C)NC(=O)[C@H](C)NC(=O)[C@H](CCC(N)=O)NC(=O)C(C)(C)NC(=O)[C@H](CC(=O)O)NC(=O)[C@H](CC(C)C)NC(=O)[C@H](Cc1ccc(O)cc1)NC(=O)[C@@H](NC(=O)[C@H](CO)NC(=O)[C@H](Cc1ccc(O)cc1)NC(=O)[C@H](CC(=O)O)NC(=O)[C@H](CO)NC(=O)[C@@H](NC(=O)[C@H](Cc1ccccc1)NC(=O)[C@@H](NC(=O)CNC(=O)[C@H](CCC(N)=O)NC(=O)C(C)(C)NC(=O)[C@@H](N)Cc1c[nH]cn1)[C@@H](C)O)[C@@H](C)O)[C@@H](C)CC)C(C)C)C(N)=O [mt-362] (H-H[Aib]QGTFTSDYSIYLD[Aib]QAAKEFVNWLMNGGPSSGAPPPSK(Palmitoyl)-NH2; N-terminus assumed)	83.17	0.0768	3.95	0.0782	240.96	0.102	agonist activity at the GIP receptor (GIP receptor; text on Table 34): exceptionally potent activity
HXQGTFTSDYSKYLDEQAAKEFICWLMNT-NH2 [Chimera-2-AIB^2 Cys^24-40 kD]	–	–	–	–	–	–	ability to lower body weight ([1]; i.p. 15 or 70 nmol/kg, 7 days post-injection): comparable ability to lower body weight
CC[C@H](C)[C@H](NC(=O)[C@H](Cc1ccccc1)NC(=O)[C@H](CCC(=O)O)NC(=O)[C@H](CCCCN)NC(=O)[C@H](C)NC(=O)[C@H](C)NC(=O)[C@H](CCC(N)=O)NC(=O)C(C)(C)NC(=O)[C@H](CC(=O)O)NC(=O)[C@H](CC(C)C)NC(=O)[C@H](Cc1ccc(O)cc1)NC(=O)[C@H](CCCCN)NC(=O)[C@H](CO)NC(=O)[C@H](Cc1ccc(O)cc1)NC(=O)[C@H](CC(=O)O)NC(=O)[C@H](CO)NC(=O)[C@@H](NC(=O)[C@H](Cc1ccccc1)NC(=O)[C@@H](NC(=O)CNC(=O)[C@H](CCC(N)=O)NC(=O)C(C)(C)NC(=O)[C@@H](N)Cc1c[nH]cn1)[C@@H](C)O)[C@@H](C)O)C(=O)N[C@@H](CS)C(=O)N[C@@H](Cc1c[nH]c2ccccc12)C(=O)N[C@@H](CC(C)C)C(=O)N[C@@H](CCSC)C(=O)N[C@@H](CC(N)=O)C(=O)NCC(=O)NCC(=O)N1CCC[C@H]1C(=O)N[C@@H](CO)C(=O)N[C@@H](CO)C(=O)NCC(=O)N[C@@H](C)C(=O)N1CCC[C@H]1C(=O)N1CCC[C@H]1C(=O)N1CCC[C@H]1C(=O)N[C@@H](CO)C(=O)N[C@@H](CCCCN)C(N)=O [mt-348] (H-H[Aib]QGTFTSDYSKYLD[Aib]QAAKEFICWLMNGGPSSGAPPPSK-NH2)	8.16	–	0.15	–	148.65	0.0037	% Relative activity at the Receptor for Glucagon (glucagon receptor; [5]): 8.2%; % Relative activity at the Receptor for GIP (GIP receptor; [5]): 0.2%; % Relative activity at the Receptor for GLP-1 (GLP-1 receptor [2]; [5]): 149%
CC[C@H](C)[C@H](NC(=O)[C@H](Cc1ccccc1)NC(=O)[C@H](CCC(=O)O)NC(=O)[C@H](CCCCN)NC(=O)[C@H](C)NC(=O)[C@H](C)NC(=O)[C@H](CCC(N)=O)NC(=O)[C@H](CCC(=O)O)NC(=O)[C@H](CC(=O)O)NC(=O)[C@H](CC(C)C)NC(=O)[C@H](Cc1ccc(O)cc1)NC(=O)[C@H](CCCCN)NC(=O)[C@H](CO)NC(=O)[C@H](Cc1ccc(O)cc1)NC(=O)[C@H](CC(=O)O)NC(=O)[C@H](CO)NC(=O)[C@@H](NC(=O)[C@H](Cc1ccccc1)NC(=O)[C@@H](NC(=O)CNC(=O)[C@H](CCC(N)=O)NC(=O)C(C)(C)NC(=O)[C@@H](N)Cc1c[nH]cn1)[C@@H](C)O)[C@@H](C)O)C(=O)N[C@@H](C)C(=O)N[C@@H](Cc1c[nH]c2ccccc12)C(=O)N[C@@H](CC(C)C)C(=O)N[C@@H](CCSC)C(=O)N[C@@H](CC(N)=O)C(=O)NCC(=O)NCC(=O)N1CCC[C@H]1C(=O)N[C@@H](CO)C(=O)N[C@@H](CO)C(=O)NCC(=O)N[C@@H](C)C(=O)N1CCC[C@H]1C(=O)N1CCC[C@H]1C(=O)N1CCC[C@H]1C(=O)N[C@@H](CO)C(=O)N[C@@H](CCCCN)C(N)=O [mt-363]	7.76	0.823	0.73	0.425	671.66	0.0037	–
CC[C@H](C)[C@H](NC(=O)[C@H](CO)NC(=O)[C@H](Cc1ccc(O)cc1)NC(=O)[C@H](CC(=O)O)NC(=O)[C@H](CO)NC(=O)[C@@H](NC(=O)[C@H](Cc1ccccc1)NC(=O)[C@@H](NC(=O)CNC(=O)[C@H](CCC(N)=O)NC(=O)C(C)(C)NC(=O)[C@@H](N)Cc1c[nH]cn1)[C@@H](C)O)[C@@H](C)O)C(=O)N[C@@H](Cc1ccc(O)cc1)C(=O)N[C@@H](CC(C)C)C(=O)N[C@@H](CC(=O)O)C(=O)NC(C)(C)C(=O)N[C@@H](CCC(N)=O)C(=O)N[C@@H](C)C(=O)N[C@@H](C)C(=O)N[C@@H](CCCCN)C(=O)N[C@@H](CCC(=O)O)C(=O)N[C@@H](Cc1ccccc1)C(=O)N[C@H](C(=O)N[C@@H](CC(N)=O)C(=O)N[C@@H](Cc1c[nH]c2ccccc12)C(=O)N[C@@H](CC(C)C)C(=O)N[C@@H](CCSC)C(=O)N[C@@H](CC(N)=O)C(=O)NCC(=O)NCC(=O)N1CCC[C@H]1C(=O)N[C@@H](CO)C(=O)N[C@@H](CO)C(=O)NCC(=O)N[C@@H](C)C(=O)N1CCC[C@H]1C(=O)N1CCC[C@H]1C(=O)N1CCC[C@H]1C(=O)N[C@@H](CO)C(=O)N[C@@H](CCCCN)C(N)=O)C(C)C [mt-361] (H-H[Aib]QGTFTSDYSIYLD[Aib]QAAKEFVNWLMNGGPSSGAPPPSK-NH2)	3.61	1.77	0.29	1.05	226.35	0.0109	–
Glucagon, Cys17PEG5K: Glucagon Cys17(1-29) reacted with mPEG-Mal-5000	–	–	–	–	–	–	Percent Soluble [4]: 94%
CC[C@H](C)[C@H](NC(=O)[C@H](Cc1ccccc1)NC(=O)[C@H](CCC(=O)O)NC(=O)[C@H](CCCCN)NC(=O)[C@H](C)NC(=O)[C@H](C)NC(=O)[C@H](CCC(N)=O)NC(=O)[C@H](CCC(=O)O)NC(=O)[C@H](CC(=O)O)NC(=O)[C@H](CC(C)C)NC(=O)[C@H](Cc1ccc(O)cc1)NC(=O)[C@H](CCCCN)NC(=O)[C@H](CO)NC(=O)[C@H](Cc1ccc(O)cc1)NC(=O)[C@H](CC(=O)O)NC(=O)[C@H](CO)NC(=O)[C@@H](NC(=O)[C@H](Cc1ccccc1)NC(=O)[C@@H](NC(=O)CNC(=O)[C@H](CCC(N)=O)NC(=O)C(C)(C)NC(=O)[C@@H](N)Cc1c[nH]cn1)[C@@H](C)O)[C@@H](C)O)C(=O)N[C@@H](CS)C(=O)N[C@@H](Cc1c[nH]c2ccccc12)C(=O)N[C@@H](CC(C)C)C(=O)N[C@@H](CCSC)C(=O)N[C@@H](CC(N)=O)C(=O)NCC(=O)NCC(=O)N1CCC[C@H]1C(=O)N[C@@H](CO)C(=O)N[C@@H](CO)C(=O)NCC(=O)N[C@@H](C)C(=O)N1CCC[C@H]1C(=O)N1CCC[C@H]1C(=O)N1CCC[C@H]1C(=O)N[C@@H](CO)C(=O)N[C@@H](CCCCN)C(N)=O [mt-346]	3.70	0.954	0.34	0.796	366.67	0.0015	–
